Test results published in article PMC4917279 (Journal of Medicinal Chemistry, 2016).

Legend:
LIMK2 = biological target: T1, LIMK2 (Homo sapiens, UniProt P53671); assay: KINOMEscan; assay type: binding; conditions: read-out: %Ctrl @ 1000 nM
T1 construct: purchased DiscoveRx KINOMEscan

YSK4 = biological target: T2, YSK4 (Homo sapiens, UniProt Q56UN5); assay: KINOMEscan; assay type: binding; conditions: read-out: %Ctrl @ 1000 nM
T2 construct: purchased DiscoveRx

[1] = Caco2 drug permeability assay; assay type: in vitro ADME; conditions: human, Caco-2, pH 7.2
Protocol: Caco-2 cells (purchased from DSMZ Braunschweig, Germany) were seeded at a density of 4.5 × 10^4 cell per well on 24-well insert plates, 0.4 μm pore size, and grown for 15 days in DMEM medium supplemented with 10% fetal bovine serum, 1% GlutaMAX (100×, GIBCO), 100 μg/mL penicillin, 100 μg/mL streptomycin (GIBCO), and 1% nonessential amino acids (100×). Cells were maintained at 37 °C in a humified 5% CO2 atmosphere. Medium was changed every second to third day. Before running the permeation assay, the culture medium was replaced by an FCS-free Hepes-carbonate transport buffer (pH 7.2). For assessment of monolayer integrity, the transepithelial electrical resistance (TEER) was measured. Test compounds were dissolved in DMSO and added either to the apical or basolateral compartment in a final concentration of 2 μM. Before and after incubation at 37 °C, samples were taken from both compartments. Analysis of compound content was performed following precipitation with methanol and LC/MS/MS analysis. Permeability (Papp) was calculated in the apical to basolateral (A → B) and basolateral to apical (B → A) directions. The apparent permeability was calculated using following equation: [drawing 3] where Vr = volume of medium in the receiver chamber, P0 = measured peak area of the test drug in the donor chamber at t = 0, S = surface area of the monolayer, P2 = measured peak area of the test drug in the acceptor chamber after incubation for 2 h, and t = incubation time. The efflux ratio basolateral (B) to apical (A) was calculated by dividing Papp (B–A) by Papp (A–B). In addition, the compound recovery was calculated. Reference compounds were analyzed in parallel as assay controls. All samples were analyzed by LC/MS/MS.

BMX = biological target: T3, BMX (Homo sapiens, UniProt P51813); assay: KINOMEscan; assay type: binding; conditions: read-out: %Ctrl @ 1000 nM
T3 construct: purchased DiscoveRx KINOMEscan

PCTK3 = biological target: T4, PCTK3 (Homo sapiens, UniProt Q07002); assay: KINOMEscan; assay type: binding; conditions: read-out: %Ctrl @ 1000 nM
T4 construct: purchased DiscoveRx KINOMEscan
T4 sequence (Q07002 whole entry): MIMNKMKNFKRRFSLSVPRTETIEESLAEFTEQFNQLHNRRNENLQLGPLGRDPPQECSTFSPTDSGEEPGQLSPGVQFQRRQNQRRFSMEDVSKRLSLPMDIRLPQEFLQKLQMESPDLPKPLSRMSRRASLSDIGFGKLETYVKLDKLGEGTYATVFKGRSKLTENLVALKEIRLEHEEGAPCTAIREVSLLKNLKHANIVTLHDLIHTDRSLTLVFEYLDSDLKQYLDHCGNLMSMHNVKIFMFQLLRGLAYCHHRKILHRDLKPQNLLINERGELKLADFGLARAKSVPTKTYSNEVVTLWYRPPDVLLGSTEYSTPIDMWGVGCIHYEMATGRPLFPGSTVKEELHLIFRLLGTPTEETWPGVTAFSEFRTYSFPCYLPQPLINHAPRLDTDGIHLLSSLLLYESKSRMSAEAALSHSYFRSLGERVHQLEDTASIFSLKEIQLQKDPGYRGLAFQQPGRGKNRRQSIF

CLK3 = biological target: T5, CLK3 (Homo sapiens, UniProt P49761); assay: KINOMEscan; assay type: binding; conditions: read-out: %Ctrl @ 1000 nM
T5 construct: purchased DiscoveRx KINOMEscan

CSNK1A1 = biological target: T6, CSNK1A1 (Homo sapiens, UniProt P48729); assay: KINOMEscan; assay type: binding; conditions: read-out: %Ctrl @ 1000 nM
T6 construct: purchased DiscoveRx KINOMEscan
T6 sequence (P48729 whole entry): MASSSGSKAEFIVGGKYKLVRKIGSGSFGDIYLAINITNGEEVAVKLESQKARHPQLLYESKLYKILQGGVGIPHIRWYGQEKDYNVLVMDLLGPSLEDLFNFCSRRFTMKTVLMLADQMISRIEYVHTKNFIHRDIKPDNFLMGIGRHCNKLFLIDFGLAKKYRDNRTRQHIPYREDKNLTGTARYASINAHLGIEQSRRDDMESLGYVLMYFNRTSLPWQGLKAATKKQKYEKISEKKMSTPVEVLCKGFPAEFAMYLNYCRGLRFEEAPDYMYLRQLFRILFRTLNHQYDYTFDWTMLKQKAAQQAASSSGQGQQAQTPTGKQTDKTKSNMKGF

RET(V804L) = biological target: T7, RET(V804L) (Homo sapiens, UniProt P07949, V804L); assay: KINOMEscan; assay type: binding; conditions: read-out: %Ctrl @ 1000 nM
T7 construct: purchased DiscoveRx KINOMEscan
T7 sequence (P07949 29-1114 V804L): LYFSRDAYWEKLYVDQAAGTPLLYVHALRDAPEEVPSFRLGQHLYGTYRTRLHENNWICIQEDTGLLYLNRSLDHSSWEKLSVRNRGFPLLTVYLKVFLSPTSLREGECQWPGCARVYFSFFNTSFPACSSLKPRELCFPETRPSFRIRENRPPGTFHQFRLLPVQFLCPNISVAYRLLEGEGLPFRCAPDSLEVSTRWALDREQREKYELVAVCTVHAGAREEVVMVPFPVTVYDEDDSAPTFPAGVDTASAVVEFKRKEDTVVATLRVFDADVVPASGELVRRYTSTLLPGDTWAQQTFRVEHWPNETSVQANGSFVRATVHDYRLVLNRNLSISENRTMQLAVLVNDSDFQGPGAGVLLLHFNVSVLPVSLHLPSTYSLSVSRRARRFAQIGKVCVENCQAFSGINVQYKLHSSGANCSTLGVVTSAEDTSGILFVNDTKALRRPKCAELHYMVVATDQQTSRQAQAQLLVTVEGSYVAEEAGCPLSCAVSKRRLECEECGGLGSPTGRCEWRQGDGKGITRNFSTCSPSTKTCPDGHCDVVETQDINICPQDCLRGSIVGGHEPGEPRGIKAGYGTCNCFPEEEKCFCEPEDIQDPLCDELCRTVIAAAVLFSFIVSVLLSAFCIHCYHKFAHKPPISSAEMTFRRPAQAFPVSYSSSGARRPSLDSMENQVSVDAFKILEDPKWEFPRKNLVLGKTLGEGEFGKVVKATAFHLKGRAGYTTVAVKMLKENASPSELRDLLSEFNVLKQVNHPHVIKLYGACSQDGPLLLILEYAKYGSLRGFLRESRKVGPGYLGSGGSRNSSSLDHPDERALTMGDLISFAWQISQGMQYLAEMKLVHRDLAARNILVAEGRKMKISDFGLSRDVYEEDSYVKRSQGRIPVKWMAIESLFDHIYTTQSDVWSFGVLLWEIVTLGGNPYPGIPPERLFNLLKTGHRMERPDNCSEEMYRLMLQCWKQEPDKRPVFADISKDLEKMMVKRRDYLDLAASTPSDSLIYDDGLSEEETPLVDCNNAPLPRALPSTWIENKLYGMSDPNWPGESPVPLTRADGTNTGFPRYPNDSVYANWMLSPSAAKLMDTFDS

NLK = biological target: T8, NLK (Homo sapiens, UniProt Q9UBE8); assay: KINOMEscan; assay type: binding; conditions: read-out: %Ctrl @ 1000 nM
T8 construct: purchased DiscoveRx KINOMEscan

WEE2 = biological target: T9, WEE2 (Homo sapiens, UniProt P0C1S8); assay: KINOMEscan; assay type: binding; conditions: read-out: %Ctrl @ 1000 nM
T9 construct: purchased DiscoveRx KINOMEscan

TGFBR2 = biological target: T10, TGFBR2 (Homo sapiens, UniProt P37173); assay: KINOMEscan; assay type: binding; conditions: read-out: %Ctrl @ 1000 nM
T10 construct: purchased DiscoveRx KINOMEscan

EGFR(T790M) = biological target: T11, EGFR(T790M) (Homo sapiens, UniProt P00533, T790M); assay: KINOMEscan; assay type: binding; conditions: read-out: %Ctrl @ 1000 nM
T11 construct: purchased DiscoveRx KINOMEscan

SMYD2 = SMYD2 (Homo sapiens, UniProt Q9NRG4); assay: Western blot of SY46 methylation signal in SMYD2 overexpressing KYSE150 cells, time course; assay type: cell-based; set-up: expressed in transfected cells; conditions: 10 µM
From the text: 3. Figure S2 Validation of AHNAK as SMYD2 substrate
Figure S2 (A) Overexpression of SMYD2 in KYSE.150 cells. SMYD2 is primarily detected in the cytosol. One SMYD2 overexpressing and one non.overexpressing cell are highlighted by arrows. The methylation signal detected by SY46 is overlapping with the SMYD2 overexpressing cells (B) Western blot analysis of SMYD2 overexpressing or parental KYSE150 cells. SY46 methylation antibody detects a strong increase in methylation signal in the high molecular weight region in SMYD2 overexpressing cells. (Later we discovered AHNAK as the high molecular substrate of around 630 kDa. Due to the high molecular weight of AHNAK and partial degradation different fragments are detected.) (C) Western blot analysis of SMYD2 overexpressing KYSE150 cells treated with DMSO or 10 µM of either AZ505 or (S).4 and harvested after the indicated time points. The methylation signal detected by SY46 was reduced in a time dependent manner. (D) Only expression of SMYD2 leads to specific methylation signals detected by SY46. Western blot analysis of a transient overexpression of wildtype (SMYD2WT /SMYD3WT) or enzymatically point mutants (SMYD2H207A/SMYD3N205A) of either SMYD2 or SMYD3 in MDA.MB231 or HeLa cells. Only in SMYD2WT cells a methylation signal is detected. Expression of green fluorescence protein (GFP) was used as control (E) […]

CSNK1D = biological target: T12, CSNK1D (Homo sapiens, UniProt P48730); assay: KINOMEscan; assay type: binding; conditions: read-out: %Ctrl @ 1000 nM
T12 construct: purchased DiscoveRx KINOMEscan

RIPK4 = biological target: T13, RIPK4 (Homo sapiens, UniProt P57078); assay: KINOMEscan; assay type: binding; conditions: read-out: %Ctrl @ 1000 nM
T13 construct: purchased DiscoveRx KINOMEscan
T13 sequence (P57078 whole entry): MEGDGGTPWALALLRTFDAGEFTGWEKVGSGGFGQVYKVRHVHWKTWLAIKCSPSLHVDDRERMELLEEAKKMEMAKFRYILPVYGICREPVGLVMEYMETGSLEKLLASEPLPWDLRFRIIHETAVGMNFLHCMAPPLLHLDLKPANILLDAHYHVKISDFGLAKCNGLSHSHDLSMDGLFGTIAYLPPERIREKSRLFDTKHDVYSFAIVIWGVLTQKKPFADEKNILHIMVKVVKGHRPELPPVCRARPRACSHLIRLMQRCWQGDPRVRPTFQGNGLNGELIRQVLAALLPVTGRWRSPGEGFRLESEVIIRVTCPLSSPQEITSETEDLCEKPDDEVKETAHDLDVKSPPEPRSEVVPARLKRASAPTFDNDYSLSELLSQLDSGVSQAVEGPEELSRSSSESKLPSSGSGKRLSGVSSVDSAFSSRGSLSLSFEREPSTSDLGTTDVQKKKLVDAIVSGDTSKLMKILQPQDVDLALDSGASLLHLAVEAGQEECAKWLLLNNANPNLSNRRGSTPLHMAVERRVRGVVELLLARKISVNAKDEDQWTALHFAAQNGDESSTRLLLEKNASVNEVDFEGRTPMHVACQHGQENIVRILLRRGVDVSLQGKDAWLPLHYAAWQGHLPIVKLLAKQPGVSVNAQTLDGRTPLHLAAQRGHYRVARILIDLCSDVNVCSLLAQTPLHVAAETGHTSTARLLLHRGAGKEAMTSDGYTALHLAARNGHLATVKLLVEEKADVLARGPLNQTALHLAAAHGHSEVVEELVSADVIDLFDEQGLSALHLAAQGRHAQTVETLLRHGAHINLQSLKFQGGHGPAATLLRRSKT

LZK = biological target: T14, LZK (Homo sapiens, UniProt O43283); assay: KINOMEscan; assay type: binding; conditions: read-out: %Ctrl @ 1000 nM
T14 construct: purchased DiscoveRx KINOMEscan

S6K1 = biological target: T15, S6K1 (Homo sapiens, UniProt P23443); assay: KINOMEscan; assay type: binding; conditions: read-out: %Ctrl @ 1000 nM
T15 construct: purchased DiscoveRx KINOMEscan

EPHA3 = biological target: T16, EPHA3 (Homo sapiens, UniProt P29320); assay: KINOMEscan; assay type: binding; conditions: read-out: %Ctrl @ 1000 nM
T16 construct: purchased DiscoveRx KINOMEscan

MEK6 = biological target: T17, MEK6 (Homo sapiens, UniProt P52564); assay: KINOMEscan; assay type: binding; conditions: read-out: %Ctrl @ 1000 nM
T17 construct: purchased DiscoveRx KINOMEscan

[2] = biological target: T18, JAK1(JH2domain-pseudokinase) (Homo sapiens, UniProt P23458); assay: KINOMEscan; assay type: binding; conditions: read-out: %Ctrl @ 1000 nM
T18 construct: JAK1(JH2domain-pseudokinase); purchased DiscoveRx KINOMEscan

FYN = biological target: T19, FYN (Homo sapiens, UniProt P06241); assay: KINOMEscan; assay type: binding; conditions: read-out: %Ctrl @ 1000 nM
T19 construct: purchased DiscoveRx KINOMEscan

YANK3 = biological target: T20, YANK3 (Homo sapiens, UniProt Q86UX6); assay: KINOMEscan; assay type: binding; conditions: read-out: %Ctrl @ 1000 nM
T20 construct: purchased DiscoveRx KINOMEscan

PHKG1 = biological target: T21, PHKG1 (Homo sapiens, UniProt Q16816); assay: KINOMEscan; assay type: binding; conditions: read-out: %Ctrl @ 1000 nM
T21 construct: purchased DiscoveRx KINOMEscan

TTK = biological target: T22, TTK (Homo sapiens, UniProt P33981); assay: KINOMEscan; assay type: binding; conditions: read-out: %Ctrl @ 1000 nM
T22 construct: purchased DiscoveRx KINOMEscan
T22 sequence (P33981 whole entry): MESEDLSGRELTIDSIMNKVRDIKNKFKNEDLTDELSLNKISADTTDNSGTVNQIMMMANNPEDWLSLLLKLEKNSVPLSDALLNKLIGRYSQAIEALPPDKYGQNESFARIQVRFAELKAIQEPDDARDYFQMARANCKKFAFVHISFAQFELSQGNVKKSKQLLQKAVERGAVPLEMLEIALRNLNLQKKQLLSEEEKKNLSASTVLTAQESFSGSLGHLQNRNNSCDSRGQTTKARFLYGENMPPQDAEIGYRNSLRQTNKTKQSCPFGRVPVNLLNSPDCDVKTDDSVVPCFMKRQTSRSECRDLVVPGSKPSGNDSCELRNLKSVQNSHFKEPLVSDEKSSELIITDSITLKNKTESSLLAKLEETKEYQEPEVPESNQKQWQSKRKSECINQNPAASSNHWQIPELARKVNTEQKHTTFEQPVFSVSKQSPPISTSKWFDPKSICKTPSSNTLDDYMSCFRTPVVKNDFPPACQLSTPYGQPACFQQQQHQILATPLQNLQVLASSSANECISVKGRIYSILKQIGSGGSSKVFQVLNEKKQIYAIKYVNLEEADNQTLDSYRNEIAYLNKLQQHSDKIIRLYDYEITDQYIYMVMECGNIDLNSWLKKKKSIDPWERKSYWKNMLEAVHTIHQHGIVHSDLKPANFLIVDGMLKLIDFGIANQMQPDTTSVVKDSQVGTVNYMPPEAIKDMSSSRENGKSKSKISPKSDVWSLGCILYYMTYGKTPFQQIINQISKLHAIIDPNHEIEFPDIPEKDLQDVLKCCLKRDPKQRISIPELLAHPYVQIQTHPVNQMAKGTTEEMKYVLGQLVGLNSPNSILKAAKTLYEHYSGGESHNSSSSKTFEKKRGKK

TGFBR1 = biological target: T23, TGFBR1 (Homo sapiens, UniProt P36897); assay: KINOMEscan; assay type: binding; conditions: read-out: %Ctrl @ 1000 nM
T23 construct: purchased DiscoveRx KINOMEscan

T2 sequence (Q56UN5 whole entry): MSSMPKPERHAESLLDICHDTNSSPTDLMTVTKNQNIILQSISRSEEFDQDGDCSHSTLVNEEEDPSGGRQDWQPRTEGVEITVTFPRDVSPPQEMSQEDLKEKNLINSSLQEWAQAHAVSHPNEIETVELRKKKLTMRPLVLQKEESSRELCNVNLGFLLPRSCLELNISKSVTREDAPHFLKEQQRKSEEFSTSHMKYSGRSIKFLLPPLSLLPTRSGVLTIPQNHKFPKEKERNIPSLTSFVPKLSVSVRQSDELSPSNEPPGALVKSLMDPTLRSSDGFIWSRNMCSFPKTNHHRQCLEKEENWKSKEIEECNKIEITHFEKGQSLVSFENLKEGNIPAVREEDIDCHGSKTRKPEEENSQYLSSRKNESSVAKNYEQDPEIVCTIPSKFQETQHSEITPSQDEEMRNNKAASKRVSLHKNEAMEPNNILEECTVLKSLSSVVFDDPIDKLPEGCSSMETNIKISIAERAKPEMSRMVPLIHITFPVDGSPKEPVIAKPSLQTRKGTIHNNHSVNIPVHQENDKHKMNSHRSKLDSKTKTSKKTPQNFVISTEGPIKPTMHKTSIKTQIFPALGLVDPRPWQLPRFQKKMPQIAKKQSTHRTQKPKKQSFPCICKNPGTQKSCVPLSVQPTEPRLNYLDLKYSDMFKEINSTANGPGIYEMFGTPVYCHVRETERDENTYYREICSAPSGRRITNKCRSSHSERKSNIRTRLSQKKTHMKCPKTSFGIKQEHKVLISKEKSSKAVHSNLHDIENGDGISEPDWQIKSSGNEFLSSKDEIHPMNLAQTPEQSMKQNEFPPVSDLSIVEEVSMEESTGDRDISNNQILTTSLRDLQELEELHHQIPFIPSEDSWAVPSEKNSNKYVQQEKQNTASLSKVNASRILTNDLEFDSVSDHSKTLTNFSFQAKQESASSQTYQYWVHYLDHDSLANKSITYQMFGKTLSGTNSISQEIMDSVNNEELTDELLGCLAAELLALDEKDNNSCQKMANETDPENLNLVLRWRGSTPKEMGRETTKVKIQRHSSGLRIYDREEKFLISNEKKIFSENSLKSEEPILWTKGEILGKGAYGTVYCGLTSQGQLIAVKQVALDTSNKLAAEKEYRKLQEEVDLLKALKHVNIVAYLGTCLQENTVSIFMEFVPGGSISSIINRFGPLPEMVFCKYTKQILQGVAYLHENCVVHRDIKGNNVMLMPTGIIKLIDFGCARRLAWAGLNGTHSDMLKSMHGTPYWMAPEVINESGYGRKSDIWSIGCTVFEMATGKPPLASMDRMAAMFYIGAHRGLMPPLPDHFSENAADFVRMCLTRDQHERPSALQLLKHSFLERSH

CCN(C(=O)CO)[C@H]1CN(/C(=N\C#N)Nc2cccc(OC(F)F)c2)N=C1c1ccc(Cl)c(Cl)c1 [(S)-4]
remaining binding at 1 µM (LIMK2): 62% | remaining binding at 1 µM (YSK4): 93% | Papp A→B at 2 h, 2 µM [1]: 3.4 ×10⁻⁶ cm/s | remaining binding at 1 µM (BMX): 89% | remaining binding at 1 µM (PCTK3): 92% | remaining binding at 1 µM (CLK3): 94% | remaining binding at 1 µM (CSNK1A1): 63% | remaining binding at 1 µM (RET(V804L)): 84% | remaining binding at 1 µM (NLK): 100% | remaining binding at 1 µM (WEE2): 100% | remaining binding at 1 µM (TGFBR2): 59% | remaining binding at 1 µM (EGFR(T790M)): 86% | Methylation signal detected by SY46 (SMYD2): reduced | remaining binding at 1 µM (CSNK1D): 100% | remaining binding at 1 µM (RIPK4): 100% | remaining binding at 1 µM (LZK): 83% | remaining binding at 1 µM (S6K1): 87% | remaining binding at 1 µM (EPHA3): 100% | remaining binding at 1 µM (MEK6): 74% | remaining binding at 1 µM [2]: 100% | remaining binding at 1 µM (FYN): 71% | remaining binding at 1 µM (YANK3): 100% | remaining binding at 1 µM (PHKG1): 97% | remaining binding at 1 µM (TTK): 82% | remaining binding at 1 µM (TGFBR1): 100%
